Results from US6004749A, “Method for identifying compounds affecting RNA/RNA binding protein interactions” (Message Pharmaceuticals, priority 1997, dated 1999).
Entries after “also recorded” stand apart in the source; their conditions may differ. Blank lines part the entries; values can stand above or below the compound they belong to.

How the values were obtained:
[1] = test system: IRE RNA / RNA binding protein (K562 protein extract); assay: Filter binding assay, IRE RNA with K562 protein extract; details: hemin 1 to 100 μM; FeCl3 1 μM to 1 mM; desferroxiamine 1 μM to 1 mM
From the text: FIG. 6 is a graph of the amount of radioactively labeled RNA retained on a filter (expressed in percent of the amount of RNA retained on a filter in a reference binding solution) following loading of various binding solutions. All of the binding solutions contained radioactively labeled IRE RNA either alone or including various other components. The first column represents a binding solution without RNA binding protein. The remaining columns represent binding solutions containing RNA binding protein (K562 extract). […] Desferal and des indicate that the binding solutions included the indicated amount of desferroxiamine as a test compound.
FIG. 8 is a graph of the amount of radioactively labeled RNA retained on a filter (expressed in percent of the amount of RNA retained on a filter in a reference binding solution) following loading of various binding solutions. Alternate columns correspond to binding solutions containing radioactively labeled AUUUA RNA or IRE RNA, either alone or including various other components. The first two column represents binding solutions without RNA binding protein. The remaining columns represent binding solution containing RNA binding protein (K562 extract). Columns 5 through 40 correspond to binding solutions including the indicated amount of the indicated test compound.
All binding reactions are performed in 96-well polystyrene plates in a final volume of 10 or 100 μl. The assays were constituted and performed as described below. […]
Binding assays were performed with wild-type IRE RNA and K562 protein extract in the presence of sources of iron or iron chelators to determine the ability of the filter assay to detect the modulation of binding interactions by small molecules. […] The reactions were analyzed by gel shifts to visualize the results of the filter assay.

[2] = test system: TNF-α 3' untranslated region / human cell RBP's; assay: High throughput screening assay, TNF-α 3' untranslated region with total protein extract; format: binding; details: TNF-α 3' UTR; for effect on TNF-α RNA/RBP interaction, in words: total protein extract; for EC50: read-out: EC50 on in vitro binding
Method: FIG. 9A is a graph of the level of RNA/RBP interactions (between the TNF-α 3' untranslated region and human cell RBP's) in the presence or absence of test compounds. […] The remaining columns include RNA plus extract in the presence of specific compounds.
(§1) All binding reactions are performed in 96-well polystyrene plates in a final volume of 10 or 100 μl. The assays were constituted and performed as described below. Specifically, assays were performed by (1) forming a binding solution including RNA molecules, 7.5 mM BTP at pH 8.5, 10 mM KCl, 5 mM MgCl2, 0.2 mM DTT, and 10% glycerol, (2) heating the binding solution to denature the RNA molecules, (3) cooling the binding solution, (4) adding RNA binding proteins to the binding solution, (5) loading the binding solution onto a filter, and (6) detecting the amount RNA retained on the filter. It is preferred that the samples be loaded on to a filter of either pure nitrocellulose or a mixed cellulose ester (MCA). It is also preferred that the filters have a 0.2μ pore size, although filters with a 0.45μ pore size will also bind the RNA/RNA binding protein complex. It is preferred that, prior to loading the binding solution onto a filter, the volume is increased. For this purpose, it is preferred that the dilution solution has the same buffer components as the binding solution except lacking the density agent. For a 10 μl volume it is preferred that the final volume be about 100 μl by addition of 1× binding buffer. It is also preferred that the binding solution be loaded onto the filter under vacuum. It is also preferred that the filter is washed twice prior to detecting the amount of RNA retained on the filter. Preferably the wash solution had the same composition as the dilution solution. However, TE (pH 8.0), PBS, or TCA can also be used as wash solutions. In most of the assays described below, the RNA molecules were labeled with ^32 P.
This example describes identification of compounds which either increase or decrease the binding interaction between a site within an RNA molecule which interacts with an RBP. This example makes use of a total protein extract which allows identification of compounds that modulate interactions without the need for identification of the specific RBP(s) involved.

[3] = test system: iron response element RNA/RBP interaction; assay: Control assay using the iron response element (Example 4); format: binding; details: increasing concentrations; unrelated RNA specificity control
TNF-α production = details: previously shown; cited from earlier work
[4] = test system: AUUUA RNA / RNA binding protein (K562 extract); assay: High throughput filter binding assay, 32P-labeled AUUUA RNA with K562 protein extract
From the text: FIG. 7 is a graph of the amount of radioactively labeled RNA retained on a filter (expressed in percent of the amount of RNA retained on a filter in a reference binding solution) following loading of various binding solutions. All of the binding solutions contained radioactively labeled AUUUA RNA either alone or including various other components. The first column represents a binding solution without RNA binding protein. The remaining columns represent binding solution containing RNA binding protein (K562 extract). Columns 3 through 8 correspond to binding solutions including the indicated test compound.
as §1
The library was initially screened at 10 μM against ^32 P-labeled AUUUA RNA. Several methods of introducing the compounds into the binding reaction were tested. Initially the compounds were coincubated with the RNA and protein, producing modest results. Next, preincubation with either the protein extract or the RNA was tried with improved results.
Seventeen compounds were chosen for further analysis at 100 nM, 1 μM and 10 μM using both AUUUA and IRE RNAs based on the results from four screening efforts (Exps. 29-31, 33). Table 2 summarizes the results from these compounds at 10 μM. The results are also shown graphically in FIG. 7. […] Compounds D9 and H2, chosen as negative controls from the initial screening, continued to have no effect in the dose dependent screen (Exp. 33) and were identified as vehicle controls.

[5] = compound 10 μM, RNA & K562 = 100.00

Compound: CC(=O)N(O)CCCCCNC(=O)CCC(=O)N(O)CCCCCNC(=O)CCC(=O)N(O)CCCCCN [Desferroxiamine, desferroxiamine]
modulation of IRE/protein binding by iron sources or iron chelator, in words [1]: did not change the amount IRE/protein complex formed

Compound: Cc1c(CCN)c2c3n1CCCC3CCC2 (centres unmarked) [SYM 1405]
inhibition of binding [2]: about 40%
effect on TNF-α RNA/RBP interaction, in words [2]: inhibited binding of TNF-α in a concentration-dependent manner; also recorded: concentration-dependent inhibition
EC50 [2]: ~2 µM
effect on iron response element binding, in words [3]: little effect on the iron response element

Compound: O=[N+]([O-])c1ccc(C(Cl)=NCCCN=Cc2ccc3c(c2)OCO3)cc1 [SYM 1301]
effect on TNF-α RNA/RBP interaction, in words [2]: no effect

potentiation of binding [2]: approximately 3 fold
EC50 [2]: 23 µM
Compound: CC(=NNC(=N)N)c1cc(NC(=O)CCCCCCC(=O)Nc2cc(C(C)=NNC(=N)N)cc(C(C)=NNC(=N)N)c2)cc(C(C)=NNC(=N)N)c1 [SYM 1710]

Avg. % (labeled AUUUA RNA retained on filter, average of Experiments #33, #31, #30, #29) [4, 5]: 111.00%
Labeled AUUUA RNA retained on filter, percent of RNA & K562 control, Experiment #29 [4, 5]: 114.53%
Labeled AUUUA RNA retained on filter, percent of RNA & K562 control, Experiment #30 [4, 5]: 66.94%
Labeled AUUUA RNA retained on filter, percent of RNA & K562 control, Experiment #31 [4, 5]: 127.28%
Labeled AUUUA RNA retained on filter, percent of RNA & K562 control, Experiment #33 [4, 5]: 135.24%
Compound: CC(=NNC(=N)N)c1cc(NC(=O)CCCCCCCCC(=O)Nc2cc(C(C)=NNC(=N)N)cc(C(C)=NNC(=N)N)c2)cc(C(C)=NNC(=N)N)c1 [Compound G10, CNI-1493]
effect on TNF-α production, in words (TNF-α production): post-transcriptionally inhibit TNF-α production
effect on counts (AUUUA RNA binding), in words ([4]; 10 μM, AUUUA RNA): substantial increase in counts in 3 of the 4 experiments

Compound: hemin
modulation of IRE/protein binding by iron sources or iron chelator, in words [1]: concentration-dependent inhibition of binding

Compound: [Cl][Fe]([Cl])[Cl] [FeCl3]
modulation of IRE/protein binding by iron sources or iron chelator, in words [1]: concentration-dependent inhibition of binding
